Values joined by “and” are separate entries in the source; they are usually repeats but may differ in a detail not shown here. Equal entries are not always repeated. Where two headings read alike, the source gives them in different places.
What was measured:
[1] = Turbidity, derived count rate of scattered light; assay type: physicochemical; conditions: for Count Rate / kcps: derived count rate of scattered light at 633 nm, 173°, from zeta-potential measurement, 0.1 mg/mL in 1 mM KCl after 1 d at 1 mg/mL in PBS, turbidity / microscopic aggregation, mean of triplicate
How it was run: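 One-day room-temperature aggregation at 1 mg/mL in PBS (pH 7.4) preceded measurement; samples then went into 1 mM KCl. Triplicates per sample, two independent experiments averaged.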

[2] = system: HIV-1 infection of TZM-bl cells; test: HIV-1 infectivity enhancement assay, β-galactosidase luminescence; assay type: cell-based; conditions: for Rel-EFC: infection relative to EF-C (QCKIKQIINMWQ = 1); for Log10 Infection Rel EFC: log10 of infection relative to EF-C; for Log Infectivity: Log10 infection relative to EF-C, asymmetric std dev errors; for Log10 Infection Rel EF-C: HIV-1 infection of TZM-bl cells; for Log10 of Rel to EFC (Feb2021): Log10 of infection relative to EF-C, all peptides of FigS16; for Abs. Inf. / RLU s-1: absolute infection rate, peptide 1.3 µM on cells, virus preincubated 10 min with fibrils, read 3 days post infection; for Abs. Infection at 0.26 µM / Infect 1 0.26 µM / Infect 2 0.26 µM / Infect 3 0.26 µM: peptide 0.26 µM; for Abs. Inf.: β-galactosidase luminescence; for Infect 1 0.26 µM / Infect 1 .3 µM: replicate 1, absolute infection signal; for Infect 1 0.26 µM / Infect 2 0.26 µM / Infect 3 0.26 µM / Infect 1 .3 µM / Infect 2 1.3µM / Infect 3 1.3 µM: Figure 4A; for Infect 2 0.26 µM / Infect 2 1.3µM: replicate 2, absolute infection signal; for Infect 3 0.26 µM / Infect 3 1.3 µM: replicate 3, absolute infection signal; for Abs. Infection at 1.3 µM / Infect 1 .3 µM / Infect 2 1.3µM / Infect 3 1.3 µM: peptide 1.3 µM
[3] = assay type: physicochemical; design: key to Fibril / Fibril Formation / TEM 2cat / Fibril: 1 = fibrils present; 0 non-fibrillar structures; conditions: for Fibril / Fibril Formation: 1 mg/mL, uranyl acetate stain, qualitative
[4] = Log10 of derived count rate of scattered light (turbidity)
[5] = log10 of derived count rate of scattered light (turbidity)
[6] = logarithm of count rate in kcps
[7] = turbidity, Log10 of derived count rate of scattered light, Figure 3A source data
[8] = Fig. S7 panel A (plotted against β-sheet content), TZM-bl cells
[9] = Fig. S7 panel B (plotted against CR), rounded to two decimals, TZM-bl cells
[10] = Log10 of infection rate relative to EF-C, Figure 3A source data
[11] = infection rate relative to EF-C, log10, data of Figure 2D
[12] = infection rate relative to EF-C, log10, source data of Figure 2C
[13] = Fig S10 panel D, fibril category by TEM
[14] = TEM, 1 = fibrils present, 0 = non-fibrillar
[15] = TEM, 1 = fibrils present, 0 = non-fibrillar structures
[16] = category: fibrils present or non-fibrillar
[17] = FigS12 panel A, fibril category by TEM
[18] = HIV-1 infection relative to EF-C, Fig 23 plot, panels A and B, mean of 3 values
[19] = HIV-1 infection relative to EF-C, Fig 23 plot, single data point, replicate 1
[20] = HIV-1 infection relative to EF-C, Fig 23 plot, single data point, replicate 2
[21] = HIV-1 infection relative to EF-C, Fig 23 plot, single data point, replicate 3
[22] = n-fold infection vs virus only, relative to that of EF-C, 1.3 µM peptide

Substance | Log10 Count Rate [1, 4] | Count Rate / kcps [1] | Log10 Count Rate [1, 5] | Log10 Count Rate [1, 6] | Log10 Count Rate [1, 7] | Rel-EFC ([2]; 1.3 µM peptide) | Log10 Infection Rel EFC ([2]; 1.3 µM peptide) | Log Infectivity [2, 8] | Log Infectivity [2, 9] | Log10 Infection Rel EF-C [2, 10] | Log10 Infection Rel EF-C [2, 11] | Log10 Infection Rel EF-C [2, 12] | Log10 of Rel to EFC (Feb2021) [2] | TEM 2cat [3, 13] | Fibril ([3]; Fig S10 panel E) | Fibril / Fibril Formation ([3]; TEM) | Fibril [3, 14] | Fibril [3, 15] | TEM 2cat [3, 17] | Fibril ([3]; FigS12 panel B, TEM) | further results
CKIKIQI | 3.386 | 2432 ± 1342 kcps and 2433 kcps | 3.386 | 3.386 | 3.386 | 1,02 | 0,01 | 0.0081 | 0.01 | 0.01 | 0.0081 | 0.0081 | 0.01 | 1 | 1 | 1 | 1 | 1 | – | – | Zeta Count Rate ([1]; mean of the 3 replicates): 2432.9 kcps; Zeta Count Rate ([1]; replicate 2): 1640.5 kcps; Zeta Count Rate ([1]; replicate 3): 4323.3 kcps; Abs. Inf. / RLU s-1 ([2]; mean of triplicate): 19406.66667 RLU s-1; Abs. Infection at 0.26 µM ([2]; mean of triplicate): 4967; Infection RLU/s, 1.3 µm abs ([2]; peptide 1.3 µm (so in the source), mean of the 3 replicates): 19406.66667 RLU/s; TEM 2cat [3, 16]: 1
KIKIQIII | 1.978 | 95 kcps | 1.978 | – | 1.978 | 0,35 | -0,45 | -0.4521 | -0.45 | -0.45 | -0.4521 | -0.4521 | -0.45 | 1 | 1 | 1 | 1 | 1 | – | – | TEM 2cat [3, 16]: 1
CKAKAQA | 2.56 | 363 kcps | 2.56 | – | 2.56 | 0,03 | -1,5 | -1.501 | -1.5 | -1.5 | -1.501 | -1.501 | – | 0 | 0 | 0 | 0 | 0 | 0 | 0 | –
CKIKQIINMWQ | 3.92 | 8317 kcps | 3.92 | 3.92 | 3.92 | 1,24 | 0,09 | 0.09484 | 0.09 | 0.09 | 0.09484 | 0.09484 | 0.09 | 1 | 1 | 1 | 1 | 1 | – | – | TEM 2cat [3, 16]: 1
QCKAKAQANMWQ | 2.631 | 428 kcps | – | 2.6 | 2.631 | 0,07 | -1,14 | -1.144 | -1.14 | -1.14 | -1.144 | -1.144 | – | – | 0 | 0 | 0 | 0 | 0 | 0 | Log10 Count Rate ([1]; turbidity, log10 of derived count rate of scattered light): 2.631; Inf. rel. EF-C [2, 18]: 0.1207; Inf. rel. EF-C [2, 19]: 0.1632; Inf. rel. EF-C [2, 20]: 0.09951; Inf. rel. EF-C [2, 21]: 0.09928; Abs. Inf. / RLU s-1 ([2]; mean of triplicate): 2767 RLU s-1; Abs. Inf. ([2]; absolute infection signal, HIV-1 on TZM-bl cells): 2767; Log10 Inf. rel. to EF-C ([2]; log10 of HIV-1 infection of TZM-bl cells relative to EF-C (EF-C = 0)): -1.144; Inf. rel. EF-C [2, 22]: 0.07; TEM 2cat ([3]; Fig S10 panel D): 0
KLKLKLQL | 1.632 | 43 kcps | 1.632 | – | 1.632 | 0,1 | -1,01 | -1.009 | – | -1.01 | -1.009 | -1.009 | – | 1 | – | 1 | 1 | 1 | 1 | 1 | –
EIEIQINM | 2.127 | 134 kcps | 2.127 | – | 2.127 | 0,04 | -1,44 | -1.44 | -1.44 | -1.44 | -1.44 | -1.44 | – | 1 | 1 | 1 | 1 | 1 | 1 | 1 | Abs. Inf. ([2]; absolute HIV-1 infection signal, TZM-bl cells): 203.3; Abs. Infection at 0.26 µM ([2]; mean of n = 3, Figure 4A): 203.3; Infect 1 0.26 µM [2]: 203.33; Infect 2 0.26 µM [2]: 123.33; Infect 3 0.26 µM [2]: 283.33; Abs. Infection at 1.3 µM ([2]; mean of n = 3, Figure 4A): 203.3; Infect 1 .3 µM [2]: 253.33; Infect 2 1.3µM [2]: 173.33; Infect 3 1.3 µM [2]: 183.33
KFKFQFF | 1.577 | 38 kcps | 1.577 | – | 1.577 | 0,12 | -0,91 | -0.9142 | – | -0.91 | -0.9142 | -0.9142 | -0.91 | 1 | – | 1 | 1 | 1 | – | – | Abs. Infection at 0.26 µM ([2]; mean of n = 3, Figure 4A): 476.7; Infect 1 0.26 µM [2]: 343.33; Infect 2 0.26 µM [2]: 603.33; Infect 3 0.26 µM [2]: 483.33; Abs. Infection at 1.3 µM ([2]; mean of n = 3, Figure 4A): 2850; Infect 1 .3 µM [2]: 3623.33; Infect 2 1.3µM [2]: 2253.33; Infect 3 1.3 µM [2]: 2673.33; TEM 2cat [3, 16]: 1
KAKAQANM | 1.628 | 43 kcps | 1.628 | 1.6 | 1.628 | 0,01 | -2,05 | -2.046 | – | -2.05 | -2.046 | -2.046 | – | 0 | – | 0 | 0 | 0 | 0 | 0 | Inf. rel. EF-C [2, 18]: 0.02204; Inf. rel. EF-C [2, 19]: 0.03965; Inf. rel. EF-C [2, 20]: 0.008224; Inf. rel. EF-C [2, 21]: 0.01824; Abs. Inf. / RLU s-1 ([2]; mean of triplicate): 497 RLU s-1; Inf. rel. EF-C [2, 22]: 0.01
CEIEIQINM | 1.767 | 58 kcps | 1.767 | – | 1.767 | 0,07 | -1,19 | -1.186 | -1.19 | -1.19 | -1.186 | -1.186 | – | 1 | 1 | 1 | 1 | 1 | 1 | 1 | –
